Experimental data reported in US10093629B2, “Heterocyclic compounds and their use as retinoid-related orphan receptor (ROR) gamma-T inhibitors” (Takeda Pharmaceutical Company Limited, priority 2014, dated 2018).

Key:
RORγt [1] = biological target: T1, RORγt (Homo sapiens, UniProt P51449); assay: RORγt binding test using fluorescent-labeled synthetic ligand (TR-FRET); conditions: read-out: binding inhibitory rate of fluorescent-labeled synthetic ligand to RORγt at test compound 1 μM
T1 sequence (P51449 1-497 isoform P51449-2): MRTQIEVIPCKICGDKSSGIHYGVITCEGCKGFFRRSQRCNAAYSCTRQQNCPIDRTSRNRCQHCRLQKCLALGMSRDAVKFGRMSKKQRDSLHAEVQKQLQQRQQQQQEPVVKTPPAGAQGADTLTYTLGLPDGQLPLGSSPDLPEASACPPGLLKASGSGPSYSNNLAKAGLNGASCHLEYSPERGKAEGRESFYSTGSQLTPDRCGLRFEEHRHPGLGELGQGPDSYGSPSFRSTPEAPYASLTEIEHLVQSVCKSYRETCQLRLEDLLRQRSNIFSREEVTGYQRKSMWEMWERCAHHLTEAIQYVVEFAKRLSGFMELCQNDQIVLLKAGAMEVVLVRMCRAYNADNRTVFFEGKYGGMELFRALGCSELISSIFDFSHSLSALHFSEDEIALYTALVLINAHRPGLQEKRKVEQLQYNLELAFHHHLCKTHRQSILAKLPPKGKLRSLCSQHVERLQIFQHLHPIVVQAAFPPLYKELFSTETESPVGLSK
Protocol: RORγt Binding Test using Fluorescent-Labeled Synthetic Ligand
The binding activity of the test compound to RORγt was measured by a time resolved fluorescence resonance energy transfer method (TR-FRET) utilizing histidine-tagged RORγt, fluorescent-labeled synthetic ligand and terbium-labeled anti-histidine tag antibody (Invitrogen). First, a test compound diluted with an assay buffer (20 mM Tris-HCl (pH 7.5), 100 mM NaCl, 1 mM DTT, 0.1% BSA) was added to a 384 well plate by 3 μL. Then, RORγt diluted with an assay buffer to 240 nM was added by 3 μL, after which fluorescent-labeled synthetic ligand diluted with the assay buffer to 12 μM was added by 3 μL, and the mixture was stood at room temperature for 20 min. Thereafter, a terbium-labeled anti-histidine tag antibody diluted with the assay buffer to 8 nM was added by 3 μL. The mixture was stood at room temperature for 20 min, and fluorescence intensity (excitation wavelength 320 nm, fluorescence wavelength 520 nm, delay time 100 microseconds) was measured by Envision (PerkinElmer).

IL-17A gene expression = assay: Effect on IL-23-induced cytokine expression in mice; assay type: in vivo, mouse; conditions: 10 mg/kg oral, 30 min before and 8 hr after IL-23; ear of Balb/c mice; versus the negative control group
Protocol: Effect on IL-23-Induced Cytokine Expression in Mice
A mouse IL-23 solution (500 ng/10 μL, prepared by Takeda Pharmaceutical Company Limited) or PBS (10 μL, negative control group) was administered intradermally in the ear of Balb/c mice (Charles River Japan, male, 7 weeks old). Twenty-four hr after administration, the ear was resected under isoflurane anesthesia. The test compound was suspended in 0.5% methylcellulose and administered orally 30 min before and 8 hr after IL-23 administration.
RNA extraction from the ear tissue and quantitative PCR were performed as follows. Specifically, ear tissue 5 mm in diameter was punched from an area of the resected ear centering on the IL-23 injection site, and the tissue was immersed in RNAlater (QIAGEN) for at least 18 hr. The RNAlater-treated ear tissue was homogenized in 350 μL of RLT buffer (RNeasy mini kit, QIAGEN) and treated (55° C., 10 min) with Proteinase K (QIAGEN). Total RNA was then extracted according to the RNeasy mini kit protocol. The RNA thus obtained was then reverse transcribed into cDNA using the High-Capacity RNA-to-cDNA kit (Applied Biosystems), and the amount of each gene expressions was measured by real-time PCR (Viia7™, Applied Biosystems). The PCR buffer used was TaqMan Fast Advanced Master Mix (Applied Biosystems), and TaqMan Gene Expression Assays (Applied Biosystems) Mm00439618_m1 (IL-17A) and 4352341E (β-actin) were used for each gene detection. The IL-17A gene expression level was normalized to the β-actin gene expression level, and the percent inhibition of IL-17A gene expression with the test compound was then calculated.
The results (percent inhibition of IL-17A gene expression with oral administration of the test compound) measured by the above-mentioned method are shown in Table 9.

RORγt [2] = biological target: T1, RORγt; assay: Cofactor recruitment test (Alpha Screen, biotinylated SRC-1 peptide); assay type: biochemical; conditions: read-out: signal value inhibitory rate at test compound 1 μM
Protocol: Cofactor Recruitment Test
Cofactor recruitment test was performed by Alpha Screen (Histidine Detection Kit, PerkinElmer) method. First, a test compound was diluted with an assay buffer (50 mM Tris-HCl (pH 7.5), 50 mM KCl, 1 mM DTT, 0.1% BSA) and added to a 384 well plate by 5 μL. […] The mixture was stood in a dark place for 1 hr, and the signal value was measured by Envision (PerkinElmer).

[3] = test system: IL-17 production in human blood; assay: Effect on IL-17 production in human blood; assay type: cell-based; conditions: 72 h; 10 μM test compound; human peripheral blood, IL-23 and Dynabeads stimulation, 3 days; read-out: percent inhibition at 10 μM (IL-17 production)
Protocol: Effect on IL-17 Production in Human Blood
The inhibitory effect of the test compound on IL-17 production in human blood was evaluated as follows. First, 150 μL of peripheral blood collected from healthy individuals using heparinized vacuum blood collection tubes was dispensed into each well of a 96-well plate (Corning), and 45 μL of RPMI 1640 medium (Gibco) containing 10% fetal bovine serum (FBS, Hyclone) and 30 μL of the test compound diluted with the medium were added to each well. The plate was then cultured for 30 min at 37° C. The cells were subsequently stimulated by adding 30 μL of 100 ng/mL human IL-23 (R&D) and 45 μL of Dynabeads Human (Invitrogen) to each well and culturing the plate for 3 days at 37° C. In wells without stimulation, 75 μL of RPMI 1640 medium containing 10% FBS was added instead of the IL-23 and Dynabeads solution. After culturing for 3 days, the culture supernatant was collected, and the amount of IL-17 in the supernatant was measured using an IL-17 ELISA kit (R&D).
The results (percent inhibition of IL-17 production with 10 μM of the test compound) measured by the above-mentioned method are shown in Table 8.

RORγt [4] = biological target: T1, RORγt; assay: Jurkat reporter test (human IL-17 ROR response element luciferase, RORγt vector); assay type: cell-based; conditions: test compound 3 μM; Jurkat cells; read-out: luminescence level inhibitory rate at test compound 3 μM
Protocol: The Jurkat cells used for the reporter test were cultured in a culture medium (RPMI (Invitrogen), 10% FCS (AusGeneX), 100 U/mL penicillin, 100 μg/mL streptomycin). On the day of the test, 4×10^7 cells were recovered by a centrifugal operation (1000 rpm, 5 min.) and suspended in PBS (phosphate buffered saline) (Invitrogen). Thereafter, the cells were recovered again by a centrifugal operation, and suspended in 2 mL of R buffer (NEON transfection kit, Invitrogen). […] Gene transfer was performed by Electroporation apparatus (NEON, Invitrogen) under the conditions of pulse voltage 1350 V, interval 10 milliseconds, number of times 3. The cells after gene transfer were suspended in 40 mL of a reaction medium (RPMI, 10% Lipid reduced FCS (HyClone), 10 mM HEPES (pH 7.5), 100 U/mL penicillin, 100 μg/mL streptomycin, 5 μM lovastatin), and plated in a 96 well plate by 90 μL. A test compound diluted with the reaction medium was added by 10 μL, and the cells were cultured overnight in an incubator. Bright-Glo (Promega) was added by 100 μL, and the mixture was stirred at room temperature for 10 min, and the luminescence level was measured by Envision (PerkinElmer).

COc1ccc2c(n1)CCN(C(=O)[C@H]1C[C@@H](CC(=O)O)C1)[C@H]2C(=O)Nc1cc(F)c([Si](C)(C)C)c(F)c1 [Example 23, (cis-3-(((5R)-5-((3,5-difluoro-4-(trimethylsilyl)phenyl)carbamoyl)-2-methoxy-7,8-dihydro-1,6-naphthyridin-6(5H)-yl)carbonyl)cyclobutyl)acetic acid]
inhibition at 1 µM (RORγt [1]): 102% | percent inhibition of IL-17A gene expression (IL-17A gene expression): 96% | inhibition at 1 µM (RORγt [2]): 87% | inhibition at 10 µM [3]: 85.9% | inhibition at 3 µM (RORγt [4]): 101%

COc1ccc2c(c1)CCN(C(=O)C1CC(CC(=O)O)C1)[C@H]2C(=O)Nc1cc(F)c([Si](C)(C)C)c(F)c1 (stereo partly drawn) [Example 4, (3-(((1R)-1-((3,5-difluoro-4-(trimethylsilyl)phenyl)carbamoyl)-6-methoxy-3,4-dihydroisoquinolin-2(1H)-yl)carbonyl)cyclobutyl)acetic acid]
inhibition at 1 µM (RORγt [1]): 102% | percent inhibition of IL-17A gene expression (IL-17A gene expression): 86% | inhibition at 1 µM (RORγt [2]): 94% | inhibition at 10 µM [3]: 88.3% | inhibition at 3 µM (RORγt [4]): 100%

COc1ccc2c(c1)CCN(C(=O)[C@H]1C[C@@H]1CC(=O)O)[C@H]2C(=O)Nc1cc(F)c([Si](C)(C)C)c(F)c1 [Example 29, ((1R,2S)-2-(((1R)-1-((3,5-difluoro-4-(trimethylsilyl)phenyl)carbamoyl)-6-methoxy-3,4-dihydroisoquinolin-2(1H)-yl)carbonyl)cyclopropyl)acetic acid]
inhibition at 1 µM (RORγt [1]): 102% | percent inhibition of IL-17A gene expression (IL-17A gene expression): 73% | inhibition at 1 µM (RORγt [2]): 91% | inhibition at 10 µM [3]: 74.9% | inhibition at 3 µM (RORγt [4]): 102%

COc1ccc2c(n1)CCN(C(=O)[C@H]1C[C@H](CC(=O)O)C1)[C@H]2C(=O)Nc1cc(F)c([Si](C)(C)C)c(F)c1 [Example 28, (trans-3-(((5R)-5-((3,5-difluoro-4-(trimethylsilyl)phenyl)carbamoyl)-2-methoxy-7,8-dihydro-1,6-naphthyridin-6(5H)-yl)carbonyl)cyclobutyl)acetic acid]
inhibition at 1 µM (RORγt [1]): 102% | percent inhibition of IL-17A gene expression (IL-17A gene expression): 91% | inhibition at 1 µM (RORγt [2]): 87% | inhibition at 10 µM [3]: 89.1% | inhibition at 3 µM (RORγt [4]): 101%

CCOc1ccc2c(c1)CCN(C(=O)[C@H]1C[C@H](C(=O)O)C1)[C@H]2C(=O)Nc1cc(F)c([Si](C)(C)C)c(F)c1 [Example 9, trans-3-(((1R)-1-((3,5-difluoro-4-(trimethylsilyl)phenyl)carbamoyl)-6-ethoxy-3,4-dihydroisoquinolin-2(1H)-yl)carbonyl)cyclobutanecarboxylic acid]
inhibition at 1 µM (RORγt [1]): 102% | percent inhibition of IL-17A gene expression (IL-17A gene expression): 57% | inhibition at 1 µM (RORγt [2]): 88% | inhibition at 10 µM [3]: 93.5% | inhibition at 3 µM (RORγt [4]): 99%

COc1ccc2c(c1)CCN(C(=O)[C@H]1C[C@@H](C(=O)O)C1)[C@H]2C(=O)Nc1cc(F)c([Si](C)(C)C)c(F)c1 [Example 5, cis-3-(((1R)-1-((3,5-difluoro-4-(trimethylsilyl)phenyl)carbamoyl)-6-methoxy-3,4-dihydroisoquinolin-2(1H)-yl)carbonyl)cyclobutanecarboxylic acid]
inhibition at 1 µM (RORγt [1]): 102% | percent inhibition of IL-17A gene expression (IL-17A gene expression): 57% | inhibition at 1 µM (RORγt [2]): 93% | inhibition at 10 µM [3]: 88.6% | inhibition at 3 µM (RORγt [4]): 100%
